Assays:
[1] = test system: BEAS-2B cells; assay: Toxicity: compound concentration needed to induce greater than 50 percent of cell loss; type: cell-based, human; details: 18 hours incubation
Outline: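 Reported value is the concentration giving greater than 50 percent cell loss, grouped into bins (≥25 μM; between 1 and 25 μM; ≤1 μM as "+++"). Measured by high-content imaging of DAPI-stained BEAS-2B TFEB-EGFP cells fixed after 18 h compound exposure.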

[2] = test system: TFEB; assay: High content screen measuring TFEB nuclear accumulation (TFEB nuclear/cytosol ratio) in BEAS-2B cells stably expressing TFEB-EGFP; type: cell-based, human; details: 18 hours incubation
Outline: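 Readout: lowest compound concentration giving a 25% rise in nuclear/cytosol TFEB-GFP ratio, from DAPI-masked nuclear and mask-expanded cytosolic signals. Cells (BEAS-2B, TFEB-EGFP stable, ~2300–2500/well) rested 8 hours, then treated 18 hours with compound serial dilutions in 2% FBS medium before PFA fixation and DAPI staining.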

SMILES	toxicity (compound concentration needed to induce greater than 50 percent of cell loss) [1]	efficacy (minimal compound concentration needed to increase TFEB nuclear/cytosol ratio by 25%) [2]
c1ccc2c(Nc3cccc4[nH]nnc34)nc(-c3ccncc3)nc2c1 [Compound 101]	+ (cell loss of greater than 50 percent at a concentration that equals or is greater than 25 μM was represented as)	+ (“+” equals >25 μM)
c1ccc2c(Nc3ccc4ncncc4c3)nc(-c3ccncc3)nc2c1 [Compound 102]	+ (cell loss of greater than 50 percent at a concentration that equals or is greater than 25 μM was represented as)	+++ (“+++” equals ≤1 μM)
c1ccc2c(Nc3ccc4nccnc4c3)nc(-c3ccncc3)nc2c1 [Compound 103]	+ (cell loss of greater than 50 percent at a concentration that equals or is greater than 25 μM was represented as)	+++ (“+++” equals ≤1 μM)
c1ccc2c(Nc3ccc4[nH]ccc4c3)nc(-c3cc[nH]c3)nc2c1 [Compound 104]	+ (cell loss of greater than 50 percent at a concentration that equals or is greater than 25 μM was represented as)	+++ (“+++” equals ≤1 μM)
c1cnc2ccc(Nc3nc(-c4cncs4)nc4ccccc34)cc2c1 [Compound 106]	+ (cell loss of greater than 50 percent at a concentration that equals or is greater than 25 μM was represented as)	+ (“+” equals >25 μM)
c1ccc2c(Nc3ccc4ncsc4c3)nc(-c3cncs3)nc2c1 [Compound 107]	+ (cell loss of greater than 50 percent at a concentration that equals or is greater than 25 μM was represented as)	+ (“+” equals >25 μM)
Fc1cccc2c(Nc3ccc4[nH]ccc4c3)nc(-c3ccncc3)nc12 [Compound 108]	+ (cell loss of greater than 50 percent at a concentration that equals or is greater than 25 μM was represented as)	+++ (“+++” equals ≤1 μM)
COc1cccc2nc(-c3ccncc3)nc(Nc3ccc4[nH]ccc4c3)c12 [Compound 109]	+ (cell loss of greater than 50 percent at a concentration that equals or is greater than 25 μM was represented as)	+++ (“+++” equals ≤1 μM)
Fc1ccc2nc(-c3ccncc3)nc(Nc3ccc4[nH]ccc4c3)c2c1 [Compound 110]	+ (cell loss of greater than 50 percent at a concentration that equals or is greater than 25 μM was represented as)	+++ (“+++” equals ≤1 μM)
Fc1cccc2nc(-c3ccncc3)nc(Nc3ccc4[nH]ccc4c3)c12 [Compound 111]	+ (cell loss of greater than 50 percent at a concentration that equals or is greater than 25 μM was represented as)	+ (“+” equals >25 μM)
Fc1ccc2c(Nc3ccc4[nH]ccc4c3)nc(-c3ccncc3)nc2c1 [Compound 112]	+ (cell loss of greater than 50 percent at a concentration that equals or is greater than 25 μM was represented as)	+++ (“+++” equals ≤1 μM)
COc1ccc2nc(-c3ccncc3)nc(Nc3ccc4[nH]ccc4c3)c2c1 [Compound 113]	++ (cell loss of greater than 50 percent at a concentration less than 25 μM and greater than 1 μM was represented as)	+++ (“+++” equals ≤1 μM)
COc1ccc2c(Nc3ccc4[nH]ccc4c3)nc(-c3ccncc3)nc2c1 [Compound 114]	++ (cell loss of greater than 50 percent at a concentration less than 25 μM and greater than 1 μM was represented as)	+++ (“+++” equals ≤1 μM)
Cc1ccc2nc(-c3ccncc3)nc(Nc3ccc4[nH]ccc4c3)c2c1 [Compound 116]	+ (cell loss of greater than 50 percent at a concentration that equals or is greater than 25 μM was represented as)	+++ (“+++” equals ≤1 μM)
Cc1cccc2c(Nc3ccc4[nH]ccc4c3)nc(-c3ccncc3)nc12 [Compound 117]	+ (cell loss of greater than 50 percent at a concentration that equals or is greater than 25 μM was represented as)	+++ (“+++” equals ≤1 μM)
Cc1nc2ccc(Nc3nc(-c4ccncc4)nc4ccncc34)cc2s1 [Compound 118]	+ (cell loss of greater than 50 percent at a concentration that equals or is greater than 25 μM was represented as)	++ (“++” equals between ≤25 μM and >1 μM)
CCc1nc2ccc(Nc3nc(-c4ccncc4)nc4ccncc34)cc2s1 [Compound 119]	+ (cell loss of greater than 50 percent at a concentration that equals or is greater than 25 μM was represented as)	+ (“+” equals >25 μM)
CC(C)c1nc2ccc(Nc3nc(-c4ccncc4)nc4ccncc34)cc2s1 [Compound 120]	+ (cell loss of greater than 50 percent at a concentration that equals or is greater than 25 μM was represented as)	+ (“+” equals >25 μM)
c1cc(-c2nc(Nc3ccc4nc(C5CC5)sc4c3)c3cnccc3n2)ccn1 [Compound 121]	+ (cell loss of greater than 50 percent at a concentration that equals or is greater than 25 μM was represented as)	+ (“+” equals >25 μM)
c1cc(-c2nc(Nc3ccc4ncsc4c3)c3cnccc3n2)ccn1 [Compound 122]	+ (cell loss of greater than 50 percent at a concentration that equals or is greater than 25 μM was represented as)	+ (“+” equals >25 μM)
c1cc(-c2nc(Nc3ccc4c(c3)OCO4)c3cnccc3n2)ccn1 [Compound 123]	+ (cell loss of greater than 50 percent at a concentration that equals or is greater than 25 μM was represented as)	++ (“++” equals between ≤25 μM and >1 μM)

Source: patent US12286442B2, “Methods and materials for increasing transcription factor eb polypeptide levels” (University of Pittsburgh—Of the Commonwealth System of …, priority 2019, dated 2025)
